Legend:
Homo sapiens = species: Homo sapiens; assay: Selectivity index, ratio IC50 for inhibition of recombinant human full-length N-terminal His6-tagged p110alpha/untagged full-length p85alpha expressed in baculovirus infected Sf21 cells to ratio IC50 for inhibition of recombinant human full-length N-terminal GST-tagged p110delta/untagged full-length p85alpha expressed in baculovirus infected Sf21 cells
[1] = molecular target: Voltage-dependent L-type calcium channel subunit alpha-1C (Homo sapiens, UniProt Q13936); assay: Inhibition of Cav1.2 (unknown origin)
Cytochrome P450 2C9 = Cytochrome P450 2C9 (Homo sapiens, UniProt P11712); assay: Inhibition of CYP2C9 (unknown origin); format: ADME
[2] = molecular target: Cyclin-dependent kinase 5/CDK5 activator 1 (Homo sapiens, UniProt Q00535); assay: Inhibition of recombinant full length human GST/His-tagged CDK5/p25 expressed in baculovirus expression system using serine/threonine-12 peptide as substrate incubated for 60 mins in presence of ATP by Z'-LYTE assay
Aurora kinase C = Aurora kinase C (Homo sapiens, UniProt Q9UQB9); assay: Inhibition of recombinant full length GST-tagged human AURKC expressed in baculovirus expression system using Ser/Thr-19 peptide as substrate incubated for 60 mins in presence of ATP by Z'-LYTE assay
[3] = molecular target: Tyrosine-protein kinase ABL2 (Homo sapiens, UniProt P42684); assay: Inhibition of recombinant full length human C-terminal His-tagged ABL2F cytoplasmic domain expressed in baculovirus expression system using tyrosine-2 peptide as substrate incubated for 60 mins in presence of ATP by Z'-LYTE assay
[4] = molecular target: Tyrosine-protein kinase JAK3 (Homo sapiens, UniProt P52333); assay: Inhibition of recombinant human GST-tagged JAK3 catalytic domain (781 to 1124 residues) expressed in baculovirus expression system using tyrosine-6 peptide as substrate incubated for 60 mins in presence of ATP by Z'-LYTE assay
[5] = molecular target: Mitogen-activated protein kinase 10 (Homo sapiens, UniProt P53779); assay: Inhibition of recombinant full length N-terminal GST-tagged human JNK3 expressed in baculovirus expression system using Ser/Thr-04 peptide as substrate after 1 hr in presence of ATP by Z'LYTE assay
[6] = molecular target: Nociceptin receptor (Homo sapiens) (UniProt P41146); assay: Displacement of [3H]nociceptin from full length human recombinant ORL1 receptor expressed in HEK293 cells at 10 uM measured after 60 mins by radiometric scintillation analysis relative to control; format: cell-based
[7] = molecular target: Neuropeptide Y receptor type 2 (Homo sapiens) (UniProt P49146); assay: Displacement of [[125I]peptide YY from full length human KAN-TS cell membrane derived Y2 neuropeptide receptor at 10 uM measured after 120 mins by radiometric scintillation analysis relative to control
[8] = molecular target: Muscarinic acetylcholine receptor M1 (Homo sapiens) (UniProt P11229); assay: Displacement of [3H]N-Methylscopolamine from full length human recombinant Muscarinic M1 receptor expressed in CHOK1 cells at 10 uM measured after 120 mins by radiometric scintillation analysis relative to control; format: cell-based; settings: CHO-K1
[9] = molecular target: Glycine receptor (Rattus norvegicus) (UniProt P22771+P24524+P07727+P20781); assay: Displacement of [3H]strychnine from glycine ion channel in Wistar rat spinal cord membranes at 10 uM incubated for 10 mins by radiometric scintillation analysis relative to control; format: cell membranes; settings: Membrane
Rattus norvegicus = species: Rattus norvegicus; assay: Inhibition of rat kainate receptor at 10 uM relative to control
[10] = molecular target: Estrogen receptor (Homo sapiens) (UniProt P03372); assay: Displacement of [3H]estradiol from recombinant full length human recombinant ERalpha receptor expressed in Sf9 insect cells at 10 uMmeasured after 120 mins by radiometric scintillation analysis relative to control; settings: 10 uM
[11] = molecular target: C-X-C chemokine receptor type 4 (Homo sapiens) (UniProt P61073); assay: Displacement of [125I]SDF-1alpha from recombinant full length human recombinant CXCR4 expressed in Chem-1 cells at 10 uM measured after 90 mins by radiometric scintillation analysis relative to control; format: cell-based
[12] = molecular target: C-X-C chemokine receptor type 2 (Homo sapiens) (UniProt P25025); assay: Displacement of [125I]IL-8 from recombinant full length human CXCR2 receptor expressed in CHOK1 cells at 10 uM measured after 60 mins by radiometric scintillation analysis relative to control; format: cell-based; settings: CHO-K1
[13] = molecular target: Adenosine receptor A2a (Homo sapiens) (UniProt P29274); assay: Displacement of [3H]CGS-21680 from full-length recombinant human A2A receptor expressed in HEK293 cells at 10 uM measured after 90 mins by scintillation counting method relative to control; format: cell-based
Ephrin type-B receptor 2 = Ephrin type-B receptor 2 (Homo sapiens, UniProt P29323); assay: Inhibition of recombinant human GST-tagged EPHB2 catalytic domain (616 to 884 residues) expressed in baculovirus expression system using tyrosine-2 peptide as substrate incubated for 60 mins in presence of ATP by Z'-LYTE assay
[14] = molecular target: G protein-coupled receptor kinase 6 (Homo sapiens, UniProt P43250); assay: Inhibition of recombinant full length human GST-tagged GRK6 expressed in baculovirus expression system using serine/threonine-16 peptide as substrate incubated for 60 mins in presence of ATP by Z'-LYTE assay
[15] = molecular target: Interleukin-1 receptor-associated kinase 1 (Homo sapiens, UniProt P51617); assay: Inhibition of recombinant human GST-tagged IRAK1 catalytic domain (194 to 712 residues) expressed in baculovirus expression system using Histone H3 (1-20) peptide as substrate incubated for 60 mins in presence of ATP by Adapta assay
[16] = molecular target: Tyrosine-protein kinase Lyn (Homo sapiens, UniProt P07948); assay: Inhibition of recombinant full length human His-tagged LYN-A expressed in baculovirus expression system using tyrosine-2 peptide as substrate incubated for 60 mins in presence of ATP by Z'-LYTE assay
[17] = molecular target: Serine/threonine-protein kinase Nek7 (Homo sapiens, UniProt Q8TDX7); assay: Inhibition of NEK7 (unknown origin) by Z'LYTE assay
[18] = molecular target: Phosphatidylinositol 3-kinase catalytic subunit type 3 (Homo sapiens, UniProt Q8NEB9); assay: Inhibition of recombinant full length human GST-tagged PIK3C3 expressed in baculovirus expression system using PI lipid as substrate incubated for 60 mins in presence of ATP by Adapta assay
[19] = molecular target: Serine/threonine-protein kinase PLK1 (Homo sapiens, UniProt P53350); assay: Inhibition of recombinant full length human His-tagged PLK1 expressed in baculovirus expression system using serine/threonine-16 peptide as substrate incubated for 60 mins in presence of ATP by Z'-LYTE assay
[20] = molecular target: Rho-associated protein kinase 1 (Homo sapiens, UniProt Q13464); assay: Inhibition of recombinant human GST-tagged ROCK1 catalytic domain expressed in baculovirus expression system using serine/threonine-7 peptide as substrate incubated for 60 mins in presence of ATP by Z'-LYTE assay
[21] = molecular target: Serine/threonine-protein kinase Sgk3 (Homo sapiens, UniProt Q96BR1); assay: Inhibition of recombinant human GST-tagged SGK3 catalytic domain (87 to 496 residues) expressed in baculovirus expression system using serine/threonine-6 peptide as substrate incubated for 60 mins in presence of ATP by Z'-LYTE assay
Chain of Serine/threonine-protein kinase Sgk3 (Q96BR1 whole entry, the tested form may be a part): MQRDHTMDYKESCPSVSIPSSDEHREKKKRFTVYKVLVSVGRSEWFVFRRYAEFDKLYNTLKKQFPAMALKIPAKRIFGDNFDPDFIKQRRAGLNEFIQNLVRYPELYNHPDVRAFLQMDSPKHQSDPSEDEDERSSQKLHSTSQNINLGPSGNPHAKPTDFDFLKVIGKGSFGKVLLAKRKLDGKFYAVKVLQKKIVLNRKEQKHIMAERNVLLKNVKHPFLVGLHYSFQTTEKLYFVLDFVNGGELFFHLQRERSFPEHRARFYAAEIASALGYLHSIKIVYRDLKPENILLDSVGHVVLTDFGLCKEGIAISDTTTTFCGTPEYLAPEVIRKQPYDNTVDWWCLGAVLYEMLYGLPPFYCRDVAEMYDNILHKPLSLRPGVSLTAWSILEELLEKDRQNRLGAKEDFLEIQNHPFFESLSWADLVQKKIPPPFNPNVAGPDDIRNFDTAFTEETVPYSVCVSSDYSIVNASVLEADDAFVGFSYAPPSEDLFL

Chain of Rho-associated protein kinase 1 (Q13464 whole entry, the tested form may be a part): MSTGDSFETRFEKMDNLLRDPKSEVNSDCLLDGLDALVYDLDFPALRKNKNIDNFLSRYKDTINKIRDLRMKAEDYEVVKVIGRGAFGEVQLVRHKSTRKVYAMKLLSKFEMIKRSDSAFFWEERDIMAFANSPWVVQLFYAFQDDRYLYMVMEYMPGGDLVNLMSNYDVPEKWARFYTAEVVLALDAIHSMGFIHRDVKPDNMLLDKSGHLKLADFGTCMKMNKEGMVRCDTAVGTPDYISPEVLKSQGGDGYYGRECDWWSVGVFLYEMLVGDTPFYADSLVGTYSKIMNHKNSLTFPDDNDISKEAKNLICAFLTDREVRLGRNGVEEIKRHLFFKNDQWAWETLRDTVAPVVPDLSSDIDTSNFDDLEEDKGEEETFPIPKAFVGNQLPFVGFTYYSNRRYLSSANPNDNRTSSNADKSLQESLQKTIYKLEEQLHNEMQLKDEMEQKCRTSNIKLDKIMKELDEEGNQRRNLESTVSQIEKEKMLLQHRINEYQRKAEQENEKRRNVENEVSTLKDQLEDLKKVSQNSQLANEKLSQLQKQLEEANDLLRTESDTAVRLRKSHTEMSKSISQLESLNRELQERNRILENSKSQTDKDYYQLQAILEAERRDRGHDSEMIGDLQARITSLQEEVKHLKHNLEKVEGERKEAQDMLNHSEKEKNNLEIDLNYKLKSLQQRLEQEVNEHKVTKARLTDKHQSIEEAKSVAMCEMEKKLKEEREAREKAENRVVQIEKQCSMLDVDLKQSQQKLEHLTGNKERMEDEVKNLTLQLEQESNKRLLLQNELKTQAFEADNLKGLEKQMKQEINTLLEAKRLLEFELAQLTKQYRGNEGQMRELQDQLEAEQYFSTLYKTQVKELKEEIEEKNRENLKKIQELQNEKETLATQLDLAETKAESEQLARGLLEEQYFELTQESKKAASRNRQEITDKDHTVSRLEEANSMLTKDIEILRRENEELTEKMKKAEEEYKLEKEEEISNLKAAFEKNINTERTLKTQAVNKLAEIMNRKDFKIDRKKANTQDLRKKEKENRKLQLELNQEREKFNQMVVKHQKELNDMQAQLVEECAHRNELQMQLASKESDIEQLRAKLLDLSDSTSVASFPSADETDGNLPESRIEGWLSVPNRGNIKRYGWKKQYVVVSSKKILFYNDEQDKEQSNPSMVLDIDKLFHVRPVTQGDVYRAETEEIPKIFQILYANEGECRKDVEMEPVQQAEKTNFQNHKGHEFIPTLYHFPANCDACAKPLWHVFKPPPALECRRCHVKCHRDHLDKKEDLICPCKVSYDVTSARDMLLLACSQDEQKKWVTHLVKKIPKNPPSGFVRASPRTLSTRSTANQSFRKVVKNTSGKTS
Chain of Ephrin type-B receptor 2 (P29323 whole entry, the tested form may be a part): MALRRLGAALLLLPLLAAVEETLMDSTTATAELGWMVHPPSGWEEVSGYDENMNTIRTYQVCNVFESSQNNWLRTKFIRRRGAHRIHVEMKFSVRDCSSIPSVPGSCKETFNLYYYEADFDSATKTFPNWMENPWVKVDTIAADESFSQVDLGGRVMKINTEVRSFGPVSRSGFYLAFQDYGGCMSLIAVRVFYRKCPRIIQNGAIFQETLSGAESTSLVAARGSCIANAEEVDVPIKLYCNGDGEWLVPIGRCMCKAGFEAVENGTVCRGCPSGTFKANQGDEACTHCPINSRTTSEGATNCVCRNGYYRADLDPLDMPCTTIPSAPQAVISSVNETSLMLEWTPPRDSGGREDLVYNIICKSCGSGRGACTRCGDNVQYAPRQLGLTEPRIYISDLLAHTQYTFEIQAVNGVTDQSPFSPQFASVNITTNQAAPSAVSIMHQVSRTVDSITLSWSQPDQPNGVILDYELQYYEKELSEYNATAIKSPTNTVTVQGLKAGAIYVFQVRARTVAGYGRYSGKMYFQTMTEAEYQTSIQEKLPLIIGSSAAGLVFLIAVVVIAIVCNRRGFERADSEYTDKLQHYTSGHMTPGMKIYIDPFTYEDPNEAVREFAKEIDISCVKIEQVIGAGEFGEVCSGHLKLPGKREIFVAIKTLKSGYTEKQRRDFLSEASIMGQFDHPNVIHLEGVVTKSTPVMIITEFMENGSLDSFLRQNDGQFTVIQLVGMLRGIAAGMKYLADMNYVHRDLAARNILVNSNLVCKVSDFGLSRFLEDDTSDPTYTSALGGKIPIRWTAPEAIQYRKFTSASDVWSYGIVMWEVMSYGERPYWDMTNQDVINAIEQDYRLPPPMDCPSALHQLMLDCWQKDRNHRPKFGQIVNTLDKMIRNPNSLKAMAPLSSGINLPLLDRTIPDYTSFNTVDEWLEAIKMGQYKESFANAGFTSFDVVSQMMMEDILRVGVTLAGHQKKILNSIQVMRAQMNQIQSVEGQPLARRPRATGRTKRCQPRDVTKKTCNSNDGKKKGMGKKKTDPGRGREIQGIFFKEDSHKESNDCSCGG
Chain of Interleukin-1 receptor-associated kinase 1 (P51617 whole entry, the tested form may be a part): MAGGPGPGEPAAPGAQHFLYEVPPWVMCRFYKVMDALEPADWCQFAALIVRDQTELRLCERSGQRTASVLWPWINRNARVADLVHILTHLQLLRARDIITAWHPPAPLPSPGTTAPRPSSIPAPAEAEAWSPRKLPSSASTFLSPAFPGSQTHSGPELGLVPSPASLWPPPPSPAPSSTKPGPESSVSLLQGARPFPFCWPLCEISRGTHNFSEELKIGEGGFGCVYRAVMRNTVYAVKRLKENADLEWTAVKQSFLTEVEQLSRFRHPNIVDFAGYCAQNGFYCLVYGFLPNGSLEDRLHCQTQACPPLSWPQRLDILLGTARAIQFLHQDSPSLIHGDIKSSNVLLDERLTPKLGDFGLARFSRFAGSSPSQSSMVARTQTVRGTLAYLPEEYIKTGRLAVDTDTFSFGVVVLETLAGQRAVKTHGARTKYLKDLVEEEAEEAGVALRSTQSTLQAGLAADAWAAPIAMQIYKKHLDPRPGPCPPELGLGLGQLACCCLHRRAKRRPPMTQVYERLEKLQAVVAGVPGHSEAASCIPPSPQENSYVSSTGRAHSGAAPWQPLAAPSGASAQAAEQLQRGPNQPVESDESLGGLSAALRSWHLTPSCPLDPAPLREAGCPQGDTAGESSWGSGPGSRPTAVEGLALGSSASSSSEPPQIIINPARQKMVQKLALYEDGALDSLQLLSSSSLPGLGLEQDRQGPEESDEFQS
Chain of G protein-coupled receptor kinase 6 (P43250 whole entry, the tested form may be a part): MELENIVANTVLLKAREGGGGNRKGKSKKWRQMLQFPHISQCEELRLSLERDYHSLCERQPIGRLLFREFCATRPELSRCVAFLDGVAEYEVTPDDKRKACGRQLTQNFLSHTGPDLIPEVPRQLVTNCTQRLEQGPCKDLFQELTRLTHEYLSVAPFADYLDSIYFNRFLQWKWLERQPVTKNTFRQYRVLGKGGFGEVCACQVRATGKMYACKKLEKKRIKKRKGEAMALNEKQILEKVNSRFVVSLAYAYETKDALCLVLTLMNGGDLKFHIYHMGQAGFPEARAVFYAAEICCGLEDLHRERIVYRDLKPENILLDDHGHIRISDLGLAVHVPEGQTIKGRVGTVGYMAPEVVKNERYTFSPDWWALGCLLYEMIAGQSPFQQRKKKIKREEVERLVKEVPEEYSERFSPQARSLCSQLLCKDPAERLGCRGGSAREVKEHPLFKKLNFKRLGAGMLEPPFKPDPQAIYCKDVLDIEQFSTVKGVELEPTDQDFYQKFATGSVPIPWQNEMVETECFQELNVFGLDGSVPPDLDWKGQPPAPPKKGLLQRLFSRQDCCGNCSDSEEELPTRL
Chain of Serine/threonine-protein kinase Nek7 (Q8TDX7 whole entry): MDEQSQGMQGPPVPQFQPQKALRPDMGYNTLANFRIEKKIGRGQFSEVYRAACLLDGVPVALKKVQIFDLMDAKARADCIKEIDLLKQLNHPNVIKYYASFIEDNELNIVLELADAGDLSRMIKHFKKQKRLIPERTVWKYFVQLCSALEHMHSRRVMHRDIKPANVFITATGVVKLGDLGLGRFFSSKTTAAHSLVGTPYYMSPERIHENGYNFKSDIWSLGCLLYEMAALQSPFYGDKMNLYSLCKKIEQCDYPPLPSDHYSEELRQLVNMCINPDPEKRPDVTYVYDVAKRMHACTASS
Chain of Mitogen-activated protein kinase 10 (P53779 whole entry): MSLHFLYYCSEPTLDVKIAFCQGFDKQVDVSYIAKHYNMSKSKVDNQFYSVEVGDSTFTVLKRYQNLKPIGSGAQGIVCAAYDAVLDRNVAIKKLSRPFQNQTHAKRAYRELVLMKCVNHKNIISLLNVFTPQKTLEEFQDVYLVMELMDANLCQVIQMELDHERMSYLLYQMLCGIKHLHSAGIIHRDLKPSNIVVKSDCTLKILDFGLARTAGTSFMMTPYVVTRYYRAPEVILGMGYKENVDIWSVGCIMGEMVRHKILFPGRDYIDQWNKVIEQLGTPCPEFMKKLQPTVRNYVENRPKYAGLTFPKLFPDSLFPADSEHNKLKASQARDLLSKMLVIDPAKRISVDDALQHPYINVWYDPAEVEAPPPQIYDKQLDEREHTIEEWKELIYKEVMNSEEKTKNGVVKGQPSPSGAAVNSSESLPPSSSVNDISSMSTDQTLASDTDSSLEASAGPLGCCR

`C[C@@H]1C[C@H]1C(=O)N1CCN(c2cnc(C#N)c(-c3cnn(C)c3)n2)C[C@H]1C` showed a Ratio IC50 (Homo sapiens) of over 373, an IC50 [1] of over 30 µM and an IC50 (Cytochrome P450 2C9) of over 50 µM. It also gave an IC50 [2] of over 100 µM, an IC50 (Aurora kinase C) of over 100 µM and an IC50 [3] of over 100 µM. It also gave an IC50 [4] of 13.7 µM, an IC50 [5] of 5.37 µM and an inhibition [6] of -1%. The inhibition [7] was -2%, the inhibition [8] was -3% and the inhibition [9] was 3%. It also gave an inhibition (Rattus norvegicus) of 14%, an inhibition [10] of 0% and an inhibition [11] of 5%. It also gave an inhibition [12] of 5%, an inhibition [13] of 18% and an IC50 (Ephrin type-B receptor 2) of over 100 µM. It also gave an IC50 [14] of over 100 µM, an IC50 [15] of over 100 µM and an IC50 [16] of over 100 µM. The IC50 [17] was over 100 µM, the IC50 [18] was over 100 µM and the IC50 [19] was over 100 µM. For the same compound, the IC50 [20] was over 100 µM and the IC50 [21] was over 100 µM.

Reference: ChEMBL document CHEMBL4602617, “Discovery and optimization of heteroaryl piperazines as potent and selective PI3Kδ inhibitors” (Bioorg Med Chem Lett, 2020)
